# Measured values from ChEMBL document CHEMBL5649166, “RIP3 induces apoptosis independent of pronecrotic kinase activity” (Mol Cell, 2014).
# Key:
# [1] = target: T1, Serine/threonine-protein kinase TAO3 (Homo sapiens) (UniProt Q9H2K8); test: Inhibition of human TAOK3/JIK using myelin basic protein as substrate at 1 uM in presence of 32P-ATP by Hotspot assay relative to control; values are per cent of control
# T1 sequence (whole entry): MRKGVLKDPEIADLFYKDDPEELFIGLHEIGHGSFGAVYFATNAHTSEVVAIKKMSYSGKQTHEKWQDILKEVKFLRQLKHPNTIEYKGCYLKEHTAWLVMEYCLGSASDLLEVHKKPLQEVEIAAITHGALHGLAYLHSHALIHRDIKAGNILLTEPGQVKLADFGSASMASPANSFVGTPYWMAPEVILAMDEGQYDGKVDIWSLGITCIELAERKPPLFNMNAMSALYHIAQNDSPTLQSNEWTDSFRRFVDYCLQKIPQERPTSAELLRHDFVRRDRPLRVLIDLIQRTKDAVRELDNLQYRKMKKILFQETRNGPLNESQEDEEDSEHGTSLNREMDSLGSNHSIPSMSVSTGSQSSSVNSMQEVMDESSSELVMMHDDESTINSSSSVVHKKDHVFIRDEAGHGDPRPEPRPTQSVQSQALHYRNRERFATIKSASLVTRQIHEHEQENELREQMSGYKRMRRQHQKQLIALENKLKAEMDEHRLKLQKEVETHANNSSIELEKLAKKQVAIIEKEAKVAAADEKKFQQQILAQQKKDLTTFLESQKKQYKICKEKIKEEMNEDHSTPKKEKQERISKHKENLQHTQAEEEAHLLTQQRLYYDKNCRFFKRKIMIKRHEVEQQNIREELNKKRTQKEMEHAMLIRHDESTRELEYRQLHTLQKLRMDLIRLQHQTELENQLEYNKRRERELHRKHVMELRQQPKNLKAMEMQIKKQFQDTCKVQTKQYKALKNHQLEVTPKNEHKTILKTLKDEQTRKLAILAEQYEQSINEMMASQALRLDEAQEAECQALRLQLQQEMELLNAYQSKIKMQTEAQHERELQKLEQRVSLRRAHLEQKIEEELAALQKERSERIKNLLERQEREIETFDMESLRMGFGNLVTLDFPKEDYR
# [2] = target: T2, Serine/threonine-protein kinase Nek1 (Homo sapiens) (UniProt Q96PY6); test: Inhibition of human NEK1 using myelin basic protein as substrate at 1 uM in presence of 32P-ATP by Hotspot assay relative to control; values are per cent of control
# T2 sequence (whole entry): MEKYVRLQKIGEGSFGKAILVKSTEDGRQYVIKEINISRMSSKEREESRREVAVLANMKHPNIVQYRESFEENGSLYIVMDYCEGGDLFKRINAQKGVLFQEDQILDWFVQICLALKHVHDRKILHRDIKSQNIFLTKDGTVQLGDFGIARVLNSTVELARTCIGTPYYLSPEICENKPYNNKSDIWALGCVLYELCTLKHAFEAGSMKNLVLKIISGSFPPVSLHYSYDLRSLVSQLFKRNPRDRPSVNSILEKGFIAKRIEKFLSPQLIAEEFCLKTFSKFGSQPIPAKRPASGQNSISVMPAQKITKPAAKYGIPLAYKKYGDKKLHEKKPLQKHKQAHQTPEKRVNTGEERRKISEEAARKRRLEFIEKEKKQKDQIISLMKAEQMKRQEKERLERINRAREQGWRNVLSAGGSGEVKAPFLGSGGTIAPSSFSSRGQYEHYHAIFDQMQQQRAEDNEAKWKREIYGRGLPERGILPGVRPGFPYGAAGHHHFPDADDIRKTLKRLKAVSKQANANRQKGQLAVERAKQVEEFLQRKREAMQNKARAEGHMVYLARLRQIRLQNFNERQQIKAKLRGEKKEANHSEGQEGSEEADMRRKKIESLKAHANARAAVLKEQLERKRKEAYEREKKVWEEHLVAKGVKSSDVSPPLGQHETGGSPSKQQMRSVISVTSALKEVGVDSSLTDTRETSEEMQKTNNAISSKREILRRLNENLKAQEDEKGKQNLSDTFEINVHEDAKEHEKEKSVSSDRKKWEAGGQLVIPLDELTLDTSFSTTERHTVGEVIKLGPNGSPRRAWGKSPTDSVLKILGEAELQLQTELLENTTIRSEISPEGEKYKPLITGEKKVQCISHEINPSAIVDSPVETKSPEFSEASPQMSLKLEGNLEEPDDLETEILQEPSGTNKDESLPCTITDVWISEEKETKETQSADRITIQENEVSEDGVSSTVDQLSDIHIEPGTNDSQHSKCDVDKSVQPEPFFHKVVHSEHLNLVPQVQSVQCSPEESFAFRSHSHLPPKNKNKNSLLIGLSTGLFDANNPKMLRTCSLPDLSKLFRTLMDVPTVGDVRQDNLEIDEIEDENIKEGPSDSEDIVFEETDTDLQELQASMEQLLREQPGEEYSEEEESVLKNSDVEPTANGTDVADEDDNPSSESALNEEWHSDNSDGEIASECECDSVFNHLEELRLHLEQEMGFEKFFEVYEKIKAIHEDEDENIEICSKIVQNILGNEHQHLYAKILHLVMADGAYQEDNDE
# [3] = target: Myosin light chain kinase 2, skeletal/cardiac muscle (Homo sapiens) (UniProt Q9H1R3); test: Residual activity of human MLCK2/MYLK2 using KKLNRTLSFAEPG as substrate at 1 uM in presence of 32P-ATP by Hotspot assay relative to control
# Chain of Myosin light chain kinase 2, skeletal/cardiac muscle (Homo sapiens) (Q9H1R3 whole entry): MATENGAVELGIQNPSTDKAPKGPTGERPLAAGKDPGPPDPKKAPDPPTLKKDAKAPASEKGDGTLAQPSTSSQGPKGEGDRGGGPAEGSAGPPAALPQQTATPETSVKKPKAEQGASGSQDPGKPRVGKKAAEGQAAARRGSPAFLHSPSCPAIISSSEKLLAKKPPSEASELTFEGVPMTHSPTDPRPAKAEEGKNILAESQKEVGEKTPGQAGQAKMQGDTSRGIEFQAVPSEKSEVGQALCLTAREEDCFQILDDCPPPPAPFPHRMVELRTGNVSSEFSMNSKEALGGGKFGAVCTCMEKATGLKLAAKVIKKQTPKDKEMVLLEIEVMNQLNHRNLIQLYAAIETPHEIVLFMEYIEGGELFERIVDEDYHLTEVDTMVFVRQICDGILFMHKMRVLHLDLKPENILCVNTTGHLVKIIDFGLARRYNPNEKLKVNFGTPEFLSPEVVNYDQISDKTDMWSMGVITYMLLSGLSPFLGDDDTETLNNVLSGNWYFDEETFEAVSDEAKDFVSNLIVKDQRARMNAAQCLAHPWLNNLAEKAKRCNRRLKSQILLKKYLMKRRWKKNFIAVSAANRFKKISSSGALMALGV
# [4] = target: Proto-oncogene tyrosine-protein kinase receptor Ret (Homo sapiens) (UniProt P07949); test: Inhibition of human RET using RRRRRRRRRRRVYSTDYYRLFNPS as substrate at 1 uM in presence of 32P-ATP by Hotspot assay relative to control
# Chain of Proto-oncogene tyrosine-protein kinase receptor Ret (Homo sapiens) (P07949 whole entry): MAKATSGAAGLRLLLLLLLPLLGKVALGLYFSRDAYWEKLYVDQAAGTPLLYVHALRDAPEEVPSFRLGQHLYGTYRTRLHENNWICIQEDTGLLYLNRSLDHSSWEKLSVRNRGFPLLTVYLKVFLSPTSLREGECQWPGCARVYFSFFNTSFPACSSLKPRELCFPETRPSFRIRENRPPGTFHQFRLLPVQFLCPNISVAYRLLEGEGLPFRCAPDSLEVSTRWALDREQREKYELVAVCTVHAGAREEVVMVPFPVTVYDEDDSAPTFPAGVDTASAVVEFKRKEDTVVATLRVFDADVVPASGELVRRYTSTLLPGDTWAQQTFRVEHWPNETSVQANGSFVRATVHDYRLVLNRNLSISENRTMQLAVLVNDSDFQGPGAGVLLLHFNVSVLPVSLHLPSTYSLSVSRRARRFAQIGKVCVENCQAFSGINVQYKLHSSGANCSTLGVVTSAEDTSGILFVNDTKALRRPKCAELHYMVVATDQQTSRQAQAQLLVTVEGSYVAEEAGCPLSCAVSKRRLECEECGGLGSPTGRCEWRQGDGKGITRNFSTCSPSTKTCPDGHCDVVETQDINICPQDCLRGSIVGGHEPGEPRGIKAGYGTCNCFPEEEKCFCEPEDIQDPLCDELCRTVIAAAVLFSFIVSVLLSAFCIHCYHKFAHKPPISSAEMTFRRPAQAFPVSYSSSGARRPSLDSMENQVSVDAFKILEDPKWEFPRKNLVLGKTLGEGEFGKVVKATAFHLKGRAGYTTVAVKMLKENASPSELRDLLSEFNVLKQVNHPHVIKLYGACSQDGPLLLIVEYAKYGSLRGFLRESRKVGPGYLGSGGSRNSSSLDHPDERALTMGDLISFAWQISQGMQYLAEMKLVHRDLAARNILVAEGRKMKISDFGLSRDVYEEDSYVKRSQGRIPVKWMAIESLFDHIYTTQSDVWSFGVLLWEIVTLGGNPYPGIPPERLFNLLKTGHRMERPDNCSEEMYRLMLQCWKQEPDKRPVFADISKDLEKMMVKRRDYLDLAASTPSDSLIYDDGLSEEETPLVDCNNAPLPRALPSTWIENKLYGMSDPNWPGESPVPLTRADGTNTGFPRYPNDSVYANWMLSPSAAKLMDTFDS
# [5] = target: CDK3/Cyclin E (Homo sapiens) (UniProt P24864+Q00526); test: Inhibition of human CDK3/cyclin E using RB Protein as substrate at 1 uM in presence of 32P-ATP by Hotspot assay relative to control; values are per cent of control
# Chain of CDK3/Cyclin E (Homo sapiens) (P24864 whole entry, looked up): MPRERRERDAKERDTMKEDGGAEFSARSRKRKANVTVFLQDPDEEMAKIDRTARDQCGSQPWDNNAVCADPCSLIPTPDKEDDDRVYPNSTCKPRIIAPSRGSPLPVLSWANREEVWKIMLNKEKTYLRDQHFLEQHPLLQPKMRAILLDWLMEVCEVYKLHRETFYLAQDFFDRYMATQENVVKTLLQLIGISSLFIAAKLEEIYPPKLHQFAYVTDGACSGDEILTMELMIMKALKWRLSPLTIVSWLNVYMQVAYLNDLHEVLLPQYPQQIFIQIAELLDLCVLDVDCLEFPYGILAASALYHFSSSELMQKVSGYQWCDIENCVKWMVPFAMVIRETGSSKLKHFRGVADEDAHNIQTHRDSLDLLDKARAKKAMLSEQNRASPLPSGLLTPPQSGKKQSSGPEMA
# Chain of CDK3/Cyclin E (Homo sapiens) (Q00526 whole entry, looked up): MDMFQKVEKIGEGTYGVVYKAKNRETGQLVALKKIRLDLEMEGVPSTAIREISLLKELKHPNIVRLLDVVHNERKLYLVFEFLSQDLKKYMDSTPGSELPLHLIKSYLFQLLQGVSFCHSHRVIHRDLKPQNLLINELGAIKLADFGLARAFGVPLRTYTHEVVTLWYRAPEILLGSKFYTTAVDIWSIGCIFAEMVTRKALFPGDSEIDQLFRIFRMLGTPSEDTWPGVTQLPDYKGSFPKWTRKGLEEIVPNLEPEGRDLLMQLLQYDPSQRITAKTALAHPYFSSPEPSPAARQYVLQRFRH
SMILES,residual activity [1],residual activity [2],residual activity [3],inhibition [4],residual activity [5]
CC(C)S(=O)(=O)c1ccc2nccc(Nc3ccc4scnc4c3)c2c1,96.4%,88.2%,94.8%,48.1%,88.5%
Cc1cc(-c2cnc(N)c3c(-c4ccc5scnc5c4)csc23)n(C)n1,99.4%,97.3%,88.1%,30%,87.6%
CNC(=O)c1ccc2c(c1)ncn2-c1ccc(CC(=O)OC(C)(C)C)cc1,95.2%,96.4%,88.9%,92.2%,92.4%
